# What was measured:
# Format in all cases: in vivo
# [1] = system: TRZAS, Triticum aestivum (wheat), variety Ralle; assay: Wheat seed treatment with safener, then pre-emergence herbicide H2 (metolachlor); visual crop injury; conditions: for Safener effect in % reduction in crop injury: TRZAS
# Experimental: (§1) The number of crop seeds that would be needed for each safener rate was calculated. Based on the weight of 100 seeds, sufficient seeds were weighed into screw top glass bottles approximately twice the volume of the seeds.
# (§2) The prospective safeners were formulated as wettable powders or water dispersible granules. These formulations were weighed out so that the required rates (g a.i./kg seed) would be obtained. The samples were added to the seeds in the bottles and then sufficient water added to produce a slurry. The bottles were capped and then placed in an overhead shaker (set at medium speed for up to 1 hour) so that the seeds were evenly coated with the slurry. The bottles were uncapped and the seeds used in the pre- or post-emergence tests as described in sections 1.2 and 1.3.
# (§3) As an alternative seed treatment method, active ingredient of the prospective safeners was weighed and dissolved in a solvent (e.g. acetone) and added to the seeds in the bottles. The solvent type and volume was selected based on prior experience so that it would have no negative impact on seed germination or subsequent plant growth. After shaking for up to 1 hour (overhead shaker) the seeds were spread out on paper in a fume cabinet to allow the remaining solvent to evaporate. The seeds were then used in the pre- or post-emergence tests as described in sections 1.2 and 1.3.
# (§4) In tests in which larger quantities of seeds required treatment, the prospective safeners, either as formulated samples in water or as active ingredient dissolved in solvent were applied to seeds using a mini-rotostat apparatus. The seeds were allowed to dry for a short time before being used in the pre- or post-emergence tests as described in sections 1.2 and 1.3.
# (§5) The safener treated seeds and untreated comparison seeds were sown into 7 to 13 cm round pots in a sandy loam soil and covered with approximately 0.5 to 1 cm of a 1 to 1 mix of sandy loam soil and sand. Herbicidal substances, as liquid (e.g. Emulsifiable concentrates) or dry (e.g. wettable powder) formulations, were diluted to the required concentrations in deionised water and applied to the soil surface using a track sprayer calibrated to deliver 300 to 800 litres of spray solution per hectare.
# (§6) The pots were placed under good growing conditions in a glasshouse and a visual assessment of herbicidal effects made after 3 to 4 weeks after herbicide application. Assessment was on a percentage basis in comparison with untreated control plants (0%=no injury, 100%=complete kill).
# Wheat or barley seeds were treated according to example 1.1. After sowing the herbicide was applied pre-emergent on the soil surface as described in example 1.2. After 3 to 4 weeks the results were visually scored in comparison with control plants (without seed treatment and herbicide treatment).
# [2] = system: HORVS = Hordeum vulgare (barley), variety Boroness; assay: Barley seed treatment with safener, then pre-emergence herbicide H2 (metolachlor); visual crop injury; conditions: for Safener effect in % reduction in crop injury: HORVS
# Experimental: as §1, §2, §3, §4, §5, §6
# Wheat or barley seeds were treated according to example 1.1. […] After 3 to 4 weeks the results were visually scored in comparison with control plants (without seed treatment and herbicide treatment).
# corn (variety Dea) = assay: Corn seed treatment with safener, then post-emergence herbicide H3 (diflufenzopyr + dicamba sodium salts); visual crop injury
# Experimental: as §1, §2
# (§7) As an alternative seed treatment method, active ingredient of the prospective safeners was weighed and dissolved in a solvent (e.g. acetone) and added to the seeds in the bottles. […]
# (§8) In tests in which larger quantities of seeds required treatment, the prospective safeners, either as formulated samples in water or as active ingredient dissolved in solvent were applied to seeds using a mini-rotostat apparatus. […]
# (§9) Corn seeds were treated according to example 1.1. […] After 3 to 4 weeks the results were visually scored in comparison with control plants (without seed treatment and herbicide treatment).
# [3] = system: ZEAMA = Zea mays (maize), variety Lorenzo; assay: Corn seed treatment with safener, then pre-emergence herbicide H1 (isoxaflutole); visual crop injury; conditions: safener seed treatment 0.1 g a.i./kg seed + Herbicide H1 pre-emergent 100 g a.i./ha
# Experimental: as §1, §2, §7, §8, §9
# [4] = safener seed treatment 0.5 g a.i./kg seed + Herbicide H2 pre-emergent 700 g a.i./ha
# [5] = safener seed treatment 1 g a.i./kg seed + Herbicide H2 pre-emergent 700 g a.i./ha
# [6] = safener seed treatment 2 g a.i./kg seed + Herbicide H2 pre-emergent 700 g a.i./ha
smiles,measurement,setting,value
CCOC(=O)C1=NOC(c2ccccc2)(c2ccccc2)C1 [(lb)],% injury to TRZAS,[1]; [4],10%
same,Safener effect in % reduction in crop injury,[1]; [4],86%
same,% injury to TRZAS,[1]; [5],20%
same,Safener effect in % reduction in crop injury,[1]; [5],73%
same,% injury to TRZAS,[1]; [6],15%
same,Safener effect in % reduction in crop injury,[1]; [6],79%
same,% injury to HORVS,[2]; [4],0%
same,Safener effect in % reduction in crop injury,[2]; [4],100%
same,% injury to HORVS,[2]; [5],0%
same,Safener effect in % reduction in crop injury,[2]; [5],100%
same,% injury to corn (variety Dea),corn (variety Dea); safener seed treatment 0.01 g a.i./kg seed + Herbicide H3 500 g a.i./ha (head: pre-emergent; text: post-emergent at 2 to 3-leaf stage),10%
same,Safener effect in % reduction in crop injury,"corn (variety Dea); safener seed treatment 0.01 g a.i./kg seed + Herbicide H3 500 g a.i./ha, corn variety Dea",57%
same,Safener effect in % reduction in crop injury,[3]; ZEAMA,71%
same,% injury to ZEAMA,[3]; after 3 to 4 weeks,10%

# — patent publication US20040110637A1, “Method of safening crops using isoxazoline carboxylates” (priority 2001, published 2004)
